Counter-ions that a name gives are not always drawn.
Key:
[1] = target: recombinant human 5-HT6 receptors (Homo sapiens (Human), UniProt P50406); assay: Competitive radioligand binding ([3H] Lysergic acid diethylamide) to serotonin 5-HT6 receptors, HeLa cell membranes; conditions: for IC50: 1.5 nM [3H] Lysergic acid diethylamide, 120 min at 37° C.
Experimental: Screening of the disclosed compounds for their potential ability to interact with serotonin 5-HT6 receptors was carried out by the method of radioligand binding. For this purpose membrane species were prepared from HeLa cells expressing recombinant human 5-HT6 receptors, by means of cells homogenization in glass homogenizer with subsequent separation of plasmatic membranes from cell nucli, mitochondria's and cell wreckages by differential centrifugation. Determination of tested compounds binding to 5-HT6 receptors was carried out according to the method described in [Monsma F J Jr, Shen Y, Ward R P, Hamblin M W and Sibley D R, Cloning and expression of a novel serotonin receptor with high affinity for tricyclic psychotropic drugs. Mol. Pharmacol. 43:320-327, 1993]. […] After the incubation the samples were filtered in vacuo on glass-microfiber filters G/F (Millipor, USA), filters were washed three times with cold solution of the medium and radioactivity was measured by scintillation counter MicroBeta 340 (PerkinElmer, USA). […] Methiothepin was used as a positive control. Binding of the tested compounds with the receptor was determined by their ability to displace the radioligand and was expressed in percent of displacement. The percent of displacement was calculated according to the following equation:
[formula] wherein: TA—was overall radioactivity in the presence of radioligand only, CA—was radioactivity in the presence of radioligand and tested compound and NA—was radioactivity in the presence of radioligand and Serotonin (5 μM).

[2] = test system: mice; assay: Passive Avoidance of mice in the Shuttle Chamber, memory disturbed by MK-801; assay type: in vivo; conditions: MK-801 0.1 mg/kg, injected 30 minutes before training

Sequence of recombinant human 5-HT6 receptors (P50406 whole entry): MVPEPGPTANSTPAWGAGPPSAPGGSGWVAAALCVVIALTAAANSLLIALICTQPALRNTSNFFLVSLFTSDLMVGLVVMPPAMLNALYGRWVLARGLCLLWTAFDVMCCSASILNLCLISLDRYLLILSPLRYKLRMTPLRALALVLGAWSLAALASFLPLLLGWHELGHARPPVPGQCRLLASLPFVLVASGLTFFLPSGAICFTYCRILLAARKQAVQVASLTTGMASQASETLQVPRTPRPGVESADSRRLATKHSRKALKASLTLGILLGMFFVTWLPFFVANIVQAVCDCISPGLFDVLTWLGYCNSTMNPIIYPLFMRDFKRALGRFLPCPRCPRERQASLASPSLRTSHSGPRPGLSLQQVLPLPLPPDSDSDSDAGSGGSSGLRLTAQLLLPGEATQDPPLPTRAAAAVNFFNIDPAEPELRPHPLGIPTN

Row | SMILES | IC50 [1] [µM] | nootropic effect (enhancement of memory disturbed by MK-801) [2] | Ki ([1]; Ki=IC50/(1+[L]/KD)) [µM]
1 | Cc1nn2c3c(cnc2c1S(=O)(=O)c1ccccc1)CNCC3 [1.1(1)] | 0.00461 |  | 
2 | Cc1nn2c3c(cnc2c1S(=O)(=O)c1ccccc1)CN(C)CC3 [1.1(3).HCl] |  | ability of active ingredient 1.1(3).HCl to produce nootropic effect | 
3 | CSc1nn2cc3c(nc2c1S(=O)(=O)c1ccccc1)CCN(C)C3 [2.2(2)] | 0.801 |  | 0.372
4 | CSc1nn2cc3c(nc2c1S(=O)(=O)c1ccc(F)cc1)CCN(C)C3 [2.2(3)] | > 1 |  | 
